Reference: patent publication US20240190838A1, “LZK-TARGETING DEGRADERS AND METHODS OF USE” (The U.S.A., as represented by the Secretary, Department of …, priority 2020, published 2024)

Columns and labels:
Detroit 562 cells = assay: Colony formation assay, Detroit 562; format: cell-based
Procedure: (§1) Crystal violet assays were used to assess relative cell growth and survival after treatment with specific compounds. In general, cells were plated in triplicate in 12-well plates for 24 hours before drug treatments were added using 10% FBS media. The plates were incubated for 14 days, with the media and drug being replaced every 48 hours. The cells were then washed with phosphate-buffered saline and fixed in ice-cold methanol before being stained with 0.5% crystal violet (Sigma-Aldrich) in 25% methanol. Images were taken using a ChemiDoc MP Imaging System (Bio Rad), and for quantification, the crystal violet stain was dissolved in 33% acetic acid, incubated for 20 minutes with shaking, and read at 595 nm using iMark™ Microplate Absorbance Reader (Bio-Rad). Graphs display percent colony formation relative to the DMSO-treated control sample.

BEAS-2B cells = assay: Colony formation assay, BEAS-2B; format: cell-based, human
Procedure: as §1

BICR56 cells = assay: MTS cell viability assay, BICR56; format: cell-based
Procedure: A Cell Titer 96 AQueous One Solution Cell Proliferation Assay (Promega) was used for MTS assays following the manufacturer's protocol. […] MTS was added, cells were incubated for two hours, and absorbance was measured at 490 nm using iMark™ Microplate Absorbance Reader (Bio-Rad). Graphs display percent cell viability relative to the DMSO-treated control sample. EC50 values were determined using GraphPad Prism 8.

c-MYC = c-MYC abundance in CAL33 cells (immunoblot); format: cell-based
Procedure: (§2) Generally, cells were plated in six-well or 35-mm plates for 24 hours, after which doxycycline was added or treatment with specific inhibitor was administered using […] for 48 hours. After appropriate treatment time, cells were washed with ice-cold phosphate-buffered saline without Ca and Mg (Quality Biological) and then lysed on ice with RIPA buffer (50 mM NaCl, 1.0% o IGEPAL® CA-630, 0.5% o sodium deoxycholate, 0.10% SDS, 50 mM Tris, pH 8.0) (Sigma-Aldrich) supplemented with protease inhibitor tablet (Sigma-Aldrich) and phosphatase inhibitor cocktails 2 and 3 (Sigma-Aldrich) followed by centrifugation at 15,000 rpm for 10 minutes at 4° C. Protein concentrations were determined from the cell lysate by using 660 nm Protein Assay Reagent (Pierce). Cell extracts were denatured, subjected to SDS-PAGE, transferred to PVDF membranes (Bio-Rad) and blocked for 2 hours using 5 bovine serum albumin (BSA) in phosphate-buffered saline and 0.10 Tween® 20 (PBS-T). The membranes were incubated with the specific antibodies overnight in […] at 4° C. followed by a 1 hour incubation with the appropriate horseradish peroxidase-conjugated secondary antibodies and signal was detected by chemiluminescence (Thermo Fisher).

GOF mutant p53 (R175H) = assay: GOF mutant p53 abundance in CAL33 cells (immunoblot); format: cell-based
Procedure: as §2

[1] = test system: CDK2 activity in SCC-15 HNSCC cells; assay: Live-cell imaging of CDK2 activity and cell cycle in SCC-15 cells; format: cell-based; settings: for CDK2 activity over the cell cycle: compared to control
Procedure: Cells were plated in 96-well plates with full growth media more than 24 hours prior to imaging, such that the density would remain sub-confluent until the end of the imaging period. Time-lapse imaging was performed in 290 μL full growth media. Images were taken in CFP and YFP channels every 12 minutes on a Nikon Ti2-E inverted microscope (Nikon) with a 20X 0.45NA objective. Total light exposure time was kept under 600 milliseconds for each time point. Cells were imaged in a humidified, 37° C. chamber at 5% CO2.
All image analyses were performed with custom MATLAB scripts as previously described (Cappell et al., Cell 2016, 166:167-180). In brief, optical illumination bias was empirically derived by sampling background areas across all wells in an imaging session, and was subsequently used to flatten all images. This enabled measurement and subtraction of a global background for each image. Cells were segmented for their nuclei based on H2B-mTurquoise. CDK2 activity was calculated by measuring the nuclear and cytoplasmic fluorescence of the DHB-mVenus protein. Cells were segmented for their cytoplasmic regions by spatially approximating a ring with an inner radius of 2 μm outside of the nuclear mask and an outer radius with a maximum of 10 μm outside of the nuclear mask. Regions within 10 μm of another nucleus were excluded. Cytoplasmic DHB-mVenus was calculated as the median intensity within the cytoplasmic ring, excluding pixel intensities indistinguishable from background.
Mitosis events were automatically identified using H2B-mTurquoise and called at anaphase when one cell split into two daughter cells, each with approximately 45-55% of the size of the mother cell. Cells were considered to have been arrested in the G2 phase if a second mitosis was not detected for more than 30 hours after the first mitosis. Following drug treatment, cells were categorized by their CDK2 activity two hours after anaphase. Cells with high CDK2 activity (defined as greater than 0.6) are considered to have immediately re-entered the cell cycle, cells with transiently low CDK2 activity (defined as less than 0.6 two hours after anaphase but rising to greater than 0.6 within the viewing time) are considered to have entered into a transient G0 state before eventually re-entering the cell cycle, and cells with low CDK2 activity (defined as less than 0.6 within the viewing time) are considered to have entered a prolonged G0 state (Arora et al., Cell Rep 2017, 19:1351-1364).

[2] = various concentrations, 24 and 48 hours

`Cc1ncsc1-c1ccc([C@H](C)NC(=O)[C@@H]2C[C@@H](O)CN2C(=O)[C@@H](NC(=O)CCCCCCC(=O)N2CCC(c3cc(Nc4cc(C#N)ccn4)nc(N4CCC(F)(F)C4)c3)CC2)C(C)(C)C)cc1` [Compound 3] was tested, and the colony formation (Detroit 562 cells; 2.5 μM) was “almost complete loss of colony formation”, the clonogenic growth (BEAS-2B cells; 1 μM for 14 days, control cells) was “little effect on control cells” and the short-term cell viability (BICR56 cells) was “reduced”. The “concentration with observed hook effect on c-MYC and GOF-p53 decreases” value (c-MYC; 24 hours and 48 hours) was 10 µM, the c-MYC abundance (c-MYC; [2]) was “loss of both GOF mutant p53 (R175H) and c-MYC abundance” and the “GOF mutant p53 (R175H) abundance” value (GOF mutant p53 (R175H); [2]) was “loss of both GOF mutant p53 (R175H) and c-MYC abundance”. For the same molecule, the cell-cycle arrest [1] was “caused a G2-phase cell-cycle arrest”, the “fraction of cells entering a quiescent state” value [1] was “increased fraction of cells entering a quiescent state” and the “CDK2 activity over the cell cycle” value [1] was “slower increase in CDK2 activity over the cell cycle”.
In the case of `N#Cc1ccnc(Nc2cc(C3CCN(C4COC4)CC3)cc(N3CCC(F)(F)C3)n2)c1` [GNE-3511], the colony formation (BEAS-2B cells; 200 nM, 14 days, cells lacking amplified MAP3K13) is reported as “only a minor reduction in colony formation”, the IC50 (BICR56 cells; 72 hours, read-out: IC50, viability in short-term MTS assay) is reported as 410 ± 59.6 nM and the “c-MYC levels over time” value (c-MYC; 500 nM, up to 72 hours) is reported as “reduction in c-MYC levels that was subsequently maintained for 72 hours”. The “rescue of loss of c-MYC by LZK^Q240S expression” value (c-MYC; CAL33 cells) was “rescued loss in c-MYC levels”, the GOF-p53 expression levels (GOF mutant p53 (R175H); catalytic inhibitor treatment) was “did not alter GOF-p53 expression levels” and the cell-cycle arrest [1] was “caused a G2-phase cell-cycle arrest”. The “fraction of cells entering a quiescent state” value [1] was “increased fraction of cells entering a quiescent state” and the “CDK2 activity over the cell cycle” value [1] was “slower increase in CDK2 activity over the cell cycle”.
With `CC(=O)N1CCC(c2cc(Nc3cc(C#N)ccn3)nc(N3CCC(F)(F)C3)c2)CC1` [LZK inhibitor 2] the colony formation (Detroit 562 cells; LZK inhibitor 2, concentration not stated) was “suppressed colony formation”.
